Results on 1 compound are retold here after patent US6432961B1, “Method for preventing the onset of asthma” (UCB S.A., priority 1998, dated 2002).

SMILES strings stand for the structures.

Data set [1] concerns onset of asthma in young children with atopic dermatitis. The experiment in a line: 18 month double blind, placebo-controlled study of cetirizine dihydrochloride for preventing the onset of asthma. The class given is in vivo, infants. To be noted: for RR for developing asthma when cetirizine treated: versus placebo. An excerpt:
The aim of the study relative to the clinical effect of cetirizine dihydrochloride was to establish on the intention to treat (ITT population) whether an 18 month cetirizine dihydrochloride treatment can prevent the onset of asthma in young children with atopic dermatitis, when compared to placebo. Subgroups based on the baseline status of biological markers as well as specific asthmatic patients (i.e. wheezers only; asthma onset date at least 3 months after inclusion) were foreseen as well. It was considered that a 30% reduction of the incidence of asthma is clinically relevant. Secondary parameters of efficacy included the severity of asthma and atopic dermatitis.
All the infants had to have at least one parent or sibling with a history of atopic disease (atopic dermatitis, allergic rhinitis or asthma). Excluded were infants with asthma, or with a history of any episodes of wheezing or nocturnal cough as well as any condition likely to obscure the diagnosis of asthma (Guidelines for the diagnosis and management of asthma. National Asthma Education and Prevention Program. Expert Panel Report II. National Institute of Health publication 97-4051; International Report. International consensus report on diagnosis and treatment of asthma. National Heart, Lung and Blood Institute. National Institute of Health publication 92-3091).
The study was a prospective, randomized, double blind, parallel group, and placebo-controlled study with cetirizine dihydrochloride.
Study treatment lasted for 18 months. After the treatment period, patients entered a long-term follow-up period.
The primary end-point for efficacy was the onset of asthma, defined as 3 episodes of nocturnal cough with sleep disturbances or wheezing, separated by at least 7 days, in a clinical setting where asthma is likely and conditions other than allergy have been excluded.
Serum total and specific (grass pollen, cow's milk, egg, house dust mites and cat dander) IgE antibody levels were determined using the Pharmacia CAP® system (Pharmacia & Upjohn, Uppsala, Sweden). These analyses were made at baseline, and after 3, 12 and 18 months of treatment by a central laboratory (Institut Pasteur—Lille, France) according to instructions of the manufacturer and routine clinical laboratory performances.
(§1) Oral solutions of cetirizine dihydrochloride (10 mg/ml) and matching placebo, similar in appearance and taste were used. The recommended study dosage was 0.25 mg cetirizine/kg b.i.d. (b.i.d.=“bis in die”, 2 times a day).
Sample size was based on an expected cumulative incidence of asthma in 40% of children in the placebo group after 18 months of treatment. A decrease of 30% of the incidence was considered as clinically relevant.

For data set [2], the system named is infants with atopic dermatitis. The experiment in a line: Adverse events recorded during the 18 month study. The class given is in vivo. The procedure: At each of the nine visits, the atopy status, any concurrent illnesses, concomitant medications and procedures were recorded. Patients underwent a physical examination, including the measurement of vital signs.
Adverse events were recorded by the parents on diary cards and discussed with the investigator at each visit. Serious adverse events had to be reported immediately.
as §1

Where [3] appears, read: subgroup with elevated Eosinophil count at baseline.

Take `O=C(O)COCCN1CCN(C(c2ccccc2)c2ccc(Cl)cc2)CC1` (centres unmarked) [Cetirizine]: the “Occurrence of Asthma by Treatment” value in data set [1] (ITT population, 18 months, 0.25 mg/kg b.i.d. oral) is given as “(37.7) %”; in data set [1] (setting [3]) it was “(42.7) %”; in data set [1] (subgroup with elevated IgE Cat dander (E1) at baseline (≧0.35 kUA/l)), “(40.6) %”; in data set [1] (subgroup with elevated IgE Egg (F1) at baseline (≧0.35 kUA/l)) it was “(31.2) %”; in data set [1] (subgroup with elevated IgE Grass pollen (GX1) at baseline (≧0.35 kUA/l)), “(27.8) %”; in data set [1] (subgroup with elevated IgE HDM (D1) at baseline (≧0.35 kUA/l)), “(28.6) %”. In addition, the figures for the “Occurrence of Asthma by Treatment” value in data set [1] (subgroup with elevated IgE HDM + Grass pollen at baseline (≧0.35 kUA/l)), in data set [1] (subgroup with elevated IgE Milk (F2) at baseline (≧0.35 kUA/l)) and in data set [1] (subgroup with elevated Total IgE (PRIST) at baseline (≧30 kU/l)) were “(34.2) %”, “(30.7) %” and “(38.1) %”, respectively. Also, in data set [1] (early treatment initiated between 1 and 2 years of age, atopic dermatitis, sensitized (specific IgE ≧0.35 kUA/l) to grass pollen or house dust mite), the “number of children developing asthma” value is reported as “halved”. In addition, in data set [1] (infants with atopic dermatitis and evidence of sensitivity to grass pollen or house dust mite), the prevention of asthma result is given as “successfully prevents asthma”. Besides, the “risk of developing asthma compared with placebo” value in data set [1] (infants with raised baseline total IgE (≧30 kU/l) or specific IgE antibodies (≧0.35 kUA/l)) is recorded as “reduced risk of developing asthma”. Also, the “RR for developing asthma when cetirizine treated” value was determined as 0.9 in data set [1] (setting [3]); 0.9 in data set [1] (subgroup with elevated IgE Cat dander (E1) at baseline); 0.8 in data set [1] (subgroup with elevated IgE Egg (F1) at baseline); 0.5 in data set [1] (subgroup with elevated IgE Grass pollen (GX1) at baseline); 0.6 in data set [1] (subgroup with elevated IgE HDM (D1) at baseline); 0.6 in data set [1] (subgroup with elevated IgE HDM + Grass pollen at baseline). The “RR for developing asthma when cetirizine treated” value in data set [1] (subgroup with elevated IgE Milk (F2) at baseline) was determined as 0.7; in data set [1] (subgroup with elevated Total IgE (PRIST) at baseline) it was 0.9. Besides, the safety in infants entry in data set [2] (18 month treatment, large trial in infants) is “safe product”. Moreover, in data set [2] (cetirizine group versus 16.1% placebo, p<0.001), the “urticaria (adverse event frequency)” value is recorded as 5.8%. In data set [2] (cetirizine versus placebo, except for urticaria), the “adverse event (AE) profiles between groups” value is reported as “no significant differences”.
